Activity calls are given as the source filed them. The rule behind the calls is not given here.

The experiment can be described thus: Luciferase light induction in v cholerae bh1651, agonist dose response, confirmatory (AID 624254). The note with it: V. cholerae BH1651 luxOD47E, luciferase light induction, 6 h; at 50 µM (top of the series).
Take `CCOC(=O)c1c(NC(=O)COC(=O)Cc2c[nH]c3ccccc23)sc(C(=O)N(C)C)c1C`: the “activation (light increase)” value is “inactive”.
Regarding `O=C(CC1NC(=O)NC1=O)Nc1ccc(Cl)cc1` (centres undefined), the “activation (light increase)” value is “inactive”.
For the compound `Cc1nn(-c2ccccc2)c(C)c1NC(=O)COC(=O)c1cccc(OC(F)F)c1`, the “activation (light increase)” value was “inactive”.
Regarding `Cc1cc(Cl)ccc1OCC(=O)OCC(=O)NC1CCS(=O)(=O)C1` (centres undefined), the “activation (light increase)” value is “inactive”.
As for `NNC(=O)c1nnn(-c2nonc2N)c1CN1CCCC1`, the “activation (light increase)” value was “inactive”.
As to `CC(=O)c1c(N2CCC(C(N)=O)CC2)nc(=S)n(-c2ccccc2)c1C`, the “activation (light increase)” value was “inactive”.
For `CN(C)CC(C)(C)CNC(=O)c1cc(=O)c2ccccc2o1` the value was “inactive”.
For the compound `CCOC(=O)CC1C(=O)NCCN1C(=O)c1cccc(C(F)(F)F)c1` (centres undefined), the “activation (light increase)” value was “inactive”.
As to `Cc1noc(C)c1NC(=O)Nc1cccc2c1O[C@H](CN(C)S(=O)(=O)c1cccs1)[C@H](C)CN([C@H](C)CO)C2=O`, the “activation (light increase)” value was “inactive”.
Regarding `CCS(=O)(=O)Nc1ccc(C(=O)OC)cc1`, the “activation (light increase)” value is “inactive”.
For the compound `NC(=O)c1nsc(C(=O)N(CC(=O)NCc2ccc(F)cc2)Cc2ccco2)c1N`, the “activation (light increase)” value was “inactive”.
For `Cc1ccc(OCCCC(=O)N(C)CC(=O)Nc2ccccc2Cl)cc1` the value was “inactive”.
Next, `CS(=O)(=O)NNC(=O)c1sccc1OCc1ncc(C(F)(F)F)cc1Cl`: “inactive”; `O=C(Nc1ccc2oc(-c3ccc4ccccc4c3)nc2c1)c1cccs1`: “inactive”.
On to `Cc1cccc(N2CCN(C(=O)C34CC5CC(CC(C5)C3)C4)CC2)c1C`, for which the “activation (light increase)” value is “inactive”.
On to `COc1ccccc1NS(=O)(=O)c1cccc(C(=O)NCC(c2ccco2)N2CCCCC2)c1` (centres undefined), for which the “activation (light increase)” value is “inactive”.
As to `CC(C)(C)OC(=O)NCCCC(CCCNC(=O)OC(C)(C)C)C(=O)O`, the “activation (light increase)” value was “inactive”.
Next, `COc1ccc(OCc2cn3c(C)cc(C)nc3n2)cc1`: “inactive”; `Cc1cccc(NC(=O)CSc2nc(=O)n(CCN3CCOCC3)c3c2CCCC3)c1C`: “inactive”.
For `Cc1ccc(OCC(=O)NC2CCS(=O)(=O)C2)c([N+](=O)[O-])n1` (centres undefined), the “activation (light increase)” value was “inactive”.
On to `COc1ccc(Cc2nnc(NC(=O)C3CC(=O)N(c4ccccc4C)C3)s2)cc1OC` (centres undefined), for which the “activation (light increase)” value was “inactive”.
Next, `CCN(CC(=O)NCc1ccc(Cl)cc1)C(=O)CSc1ccccc1`: “inactive”; `COc1cc(SC)ccc1C(=O)OCC(=O)NCC(C)C`: “inactive”.
`CCCCNC(=O)COC(=O)c1ccc(N(C)C)cc1`: the “activation (light increase)” value was “inactive”.
As for `Cc1ccc(SCc2nc(-c3cccnc3)no2)cc1`, the “activation (light increase)” value was “inactive”.
For the compound `CCc1ccc(-c2ccc(C(=O)O)n2CC)cc1`, the “activation (light increase)” value was “inactive”.
Regarding `CCc1cc(C(=O)N2CCN(C(=O)c3ccccc3)CC2)sc1C`, the “activation (light increase)” value is “inactive”.
On to `CN1CC(=O)N(CC(=O)Nc2ccc3c(c2)CCC3)C1=O`, for which the “activation (light increase)” value was “inactive”.
For `Cc1c(C(=O)c2ccc(F)cc2F)c2ccccn2c1CCc1ccccn1` the value was “inactive”; for `CCCn1nnnc1NCc1ccc(CC)cc1`, “inactive”.
Regarding `Cc1ccc2occ(C(c3nnnn3Cc3ccccc3)N3CCOCC3)c(=O)c2c1` (centres undefined), the “activation (light increase)” value was “inactive”.
As for `CC(OC(=O)Cn1cnc2c1c(=O)n(C)c(=O)n2C)C(=O)c1ccccc1` (centres undefined), the “activation (light increase)” value was “inactive”.
Next, `Cc1cccc(N2CCN(C(=O)Cn3cccc3C(=O)c3ccccc3)CC2)c1C`: “inactive”; `O=C(CN1C(=O)COc2ccccc21)c1ccc(Cl)cc1`: “inactive”.

These data come from PubChem BioAssay AID624254 (Broad Institute, 2012).
